From PubChem BioAssay (NCI)
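Exposure lasted 48 hours, with cells grown in 96-well plates and compounds tested at five concentrations. TGI: concentration producing complete growth inhibition.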

What was measured:
Experiment in all cases: NCI tumour cell line growth inhibition, 48 h
SF-295 CNS = system: SF-295 CNS
U251 CNS = system: U251 CNS
SNB-75 CNS = system: SNB-75 CNS
HCT-116 colon = system: HCT-116 colon
IGROV1 ovarian = system: IGROV1 ovarian
SW-620 colon = system: SW-620 colon
CAKI-1 renal = system: CAKI-1 renal
PC-3 prostate = system: PC-3 prostate
MOLT-4 leukemia = system: MOLT-4 leukemia
OVCAR-4 ovarian = system: OVCAR-4 ovarian
MDA-N = system: MDA-N
HT29 colon = system: HT29 colon
A549 NSCLC = system: A549 NSCLC
NCI-H522 lung = system: NCI-H522 lung
ACHN renal = system: ACHN renal
DLD-1 colon = system: DLD-1 colon
LXFL 529 NSCLC = system: LXFL 529 NSCLC
HL-60(TB) leukemia = system: HL-60(TB) leukemia
NCI/ADR-RES ovarian = system: NCI/ADR-RES ovarian
MCF7 breast = system: MCF7 breast

Compound | TGI (SF-295 CNS) [µM] | TGI (U251 CNS) [µM] | TGI (SNB-75 CNS) [µM] | TGI (HCT-116 colon) [µM] | TGI (IGROV1 ovarian) [µM] | TGI (SW-620 colon) [µM] | TGI (CAKI-1 renal) [µM] | TGI (PC-3 prostate) [µM] | TGI (MOLT-4 leukemia) [µM] | TGI (OVCAR-4 ovarian) [µM] | TGI (MDA-N) [µM] | TGI (HT29 colon) [µM] | TGI (A549 NSCLC) [µM] | TGI (NCI-H522 lung) [µM] | TGI (ACHN renal) [µM] | TGI (DLD-1 colon) [µM] | TGI (LXFL 529 NSCLC) [µM] | TGI (HL-60(TB) leukemia) [µM] | TGI (NCI/ADR-RES ovarian) [µM] | TGI (MCF7 breast) [µM]
COC(=O)Cc1c(C2C(CC(=O)OC)c3ccccc3N2C2OC(CO)C(O)C(O)C2O)[nH]c2ccccc12 (stereo not drawn) | > 100 | > 100 | > 100 | > 100 | > 100 | > 100 | > 100 | > 100 | > 100 | > 100 | > 100 | > 100 | > 100 | > 100 |  |  |  |  |  | 
CC(C)(C)CI | 33.9 | 66.4 | 67.6 | 39.7 | > 100 | 36.1 |  |  | 76.9 |  |  | > 10 | 73.1 | 45.2 | 58.5 | > 100 | > 100 | 50.4 |  | 
COc1ccc(-c2c3c(nc4nc(SCC(=O)c5ccc(Br)cc5)nc(N)c24)CCCC3)cc1OC | > 100 | > 100 | 28.1 | > 100 | > 100 | > 100 | > 100 | > 100 |  | > 100 | > 100 | > 100 | > 100 |  | > 100 |  |  | > 100 | > 100 | > 100
O=C1CCC2COc3ccc(O)c1c32 (stereo not drawn) | > 100 | > 100 | > 100 | > 100 | > 100 | > 100 | > 100 |  | > 100 | > 100 |  | > 100 | > 100 |  | > 100 |  | > 100 | > 100 |  | 
COc1nc(NC2OC(CO)C(O)C(O)C2O)c(N)c(=O)[nH]1 (stereo not drawn) | > 100 | > 100 | > 100 | > 100 | > 100 | > 100 |  |  | > 100 | > 100 |  | > 100 | > 100 | > 100 |  | > 100 |  | > 100 | > 100 | > 100
